Laboratory results as given in patent US9260467B2, “Sialic acid dimers” (priority 2011, dated 2016).

Molecular target: T1, Siglec-2 (CD22) (Homo sapiens, UniProt P20273)
T1 sequence (P20273 20-847): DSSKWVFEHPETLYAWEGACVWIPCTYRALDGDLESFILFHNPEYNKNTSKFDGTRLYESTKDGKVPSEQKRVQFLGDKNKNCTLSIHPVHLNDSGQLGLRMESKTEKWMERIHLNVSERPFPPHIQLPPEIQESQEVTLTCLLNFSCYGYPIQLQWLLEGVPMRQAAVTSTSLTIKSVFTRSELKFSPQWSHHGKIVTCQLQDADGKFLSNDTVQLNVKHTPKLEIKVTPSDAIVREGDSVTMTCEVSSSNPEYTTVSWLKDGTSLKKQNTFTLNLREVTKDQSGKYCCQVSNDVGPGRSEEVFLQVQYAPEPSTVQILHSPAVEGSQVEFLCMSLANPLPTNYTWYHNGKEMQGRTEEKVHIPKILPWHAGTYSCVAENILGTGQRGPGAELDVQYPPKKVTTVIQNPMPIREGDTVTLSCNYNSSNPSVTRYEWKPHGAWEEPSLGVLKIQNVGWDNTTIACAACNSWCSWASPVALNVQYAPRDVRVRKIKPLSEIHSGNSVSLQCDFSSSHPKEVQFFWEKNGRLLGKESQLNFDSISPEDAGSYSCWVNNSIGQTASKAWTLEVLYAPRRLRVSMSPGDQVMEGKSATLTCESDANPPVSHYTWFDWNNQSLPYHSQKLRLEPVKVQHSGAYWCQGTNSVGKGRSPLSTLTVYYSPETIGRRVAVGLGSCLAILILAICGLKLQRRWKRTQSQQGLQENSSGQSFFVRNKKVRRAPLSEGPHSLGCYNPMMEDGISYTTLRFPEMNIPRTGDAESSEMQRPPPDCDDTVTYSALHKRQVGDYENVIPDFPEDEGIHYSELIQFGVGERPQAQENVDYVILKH
Assay: new affinity assay: displacement of biotinylated compound 155 from sialidase-treated Daudi cells, FACS with streptavidin-PE
Assay type: binding
Set-up: endogenous in cells; host or cells: Daudi (human B-cell lymphoma line)
Settings: Table II; rIP values set relative to compound 38; Daudi cells, displacement of compound 155
Procedure: To determine the affinity of the compound of the formula (I), approximately 5×10^6 to 2×10^8 cells of the human B-cell lymphoma line “Daudi” were incubated with sialidase (A. ureafaciens) at 37° C. for 1 h (final concentration 0.1 unit/ml). […] Batches of 1-2×10^6 cells were transferred to sample vessels, and incubated on ice for 15 min with serial concentrations (10-fold dilutions, 1 mM to 1×10^−7 mM) of the substance under measurement (inhibitor). The reaction volume was 50 μl. Then 50 microliters of compound 155 (4-micromolar) were added, and incubation took place for 20 min Washing with FACS buffer (PBS, 0.1 BSA, 0.01% sodium azide) was followed by incubation with streptavidin-PE in the dark for 15 min, followed by washing and measurement of the bound amount of […] via the streptavidin-PE in the FACS. For the determination of 0% displacement of the compound 155, cells without inhibitor were measured. For the determination of 100% displacement, cells were measured without compound 155 and without inhibitor. For each assay, four substances and one reference were measured. The IC50 values determined in each assay were subsequently converted into values of rIP (relative Inhibitory Potency). […]

Compared with `CC(=O)N[C@H]1[C@H]([C@H](O)[C@H](O)CNC(=O)c2ccc(-c3ccc(C(=O)[O-])cc3)cc2)O[C@@](OCCCSCCNC(=O)c2ccc(C(=O)NCCSCCCO[C@]3(C(=O)[O-])C[C@H](O)[C@@H](NC(C)=O)[C@H]([C@H](O)[C@H](O)CNC(=O)c4ccc(-c5ccc(C(=O)[O-])cc5)cc4)O3)cc2)(C(=O)[O-])C[C@@H]1O.[Na+].[Na+].[Na+].[Na+]` [Compound 68], `CC(=O)N[C@H]1[C@H]([C@H](O)[C@H](O)CNC(=O)c2ccc(-c3ccc(O)cc3)cc2)O[C@@](OCCCSCCNC(=O)c2ccc(C(=O)NCCSCCCO[C@]3(C(=O)[O-])C[C@H](O)[C@@H](NC(C)=O)[C@H]([C@H](O)[C@H](O)CNC(=O)c4ccc(-c5ccc(O)cc5)cc4)O3)cc2)(C(=O)[O-])C[C@@H]1O.[Na+].[Na+]` [Compound 67] is higher in rIP: 5 for the first, 1959 for the second.

First: CC(=O)N[C@H]1[C@H]([C@H](O)[C@H](O)CNC(=O)c2ccc(-c3ccccc3)cc2)O[C@@](OCCCSCCNC(=O)c2ccccc2-c2ccccc2C(=O)NCCSCCCO[C@]2(C(=O)[O-])C[C@H](O)[C@@H](NC(C)=O)[C@H]([C@H](O)[C@H](O)CNC(=O)c3ccc(-c4ccccc4)cc3)O2)(C(=O)[O-])C[C@@H]1O.[Na+].[Na+] [Compound 35]
Second: CC(=O)N[C@H]1[C@H]([C@H](O)[C@H](O)CNC(=O)c2ccc(-c3ccccc3)cc2)O[C@@](OCCCSCCNC(=O)c2ccc(C(=O)NCCSCCCO[C@]3(C(=O)[O-])C[C@H](O)[C@@H](NC(C)=O)[C@H]([C@H](O)[C@H](O)CNC(=O)c4ccc(-c5ccccc5)cc4)O3)cc2)(C(=O)[O-])C[C@@H]1OC(=O)c1ccccc1.[Na+].[Na+] [Compound 147]
The rIP of the first is lower: 717 for the first, 32069 for the second.

First: CC(=O)N[C@H]1[C@H]([C@H](O)[C@H](O)CNC(=O)c2ccc(-c3ccccc3)cc2)O[C@@](OCCCSCCNC(=O)Nc2ccc(NC(=O)NCCSCCCO[C@]3(C(=O)[O-])C[C@H](O)[C@@H](NC(C)=O)[C@H]([C@H](O)[C@H](O)CNC(=O)c4ccc(-c5ccccc5)cc4)O3)cc2)(C(=O)[O-])C[C@@H]1O.[Na+].[Na+] [Compound 49]
Second: CC(=O)N[C@H]1[C@H]([C@H](O)[C@H](O)CNC(=O)c2ccc(-c3ccccc3)cc2)O[C@@](OCCCSCCC(=O)NCc2ccc(CNC(=O)CCSCCCO[C@]3(C(=O)[O-])C[C@H](O)[C@@H](NC(C)=O)[C@H]([C@H](O)[C@H](O)CNC(=O)c4ccc(-c5ccccc5)cc4)O3)cc2)(C(=O)[O-])C[C@@H]1O.[Na+].[Na+] [Compound 44]
The rIP of the first is higher: 626 for the first, 177 for the second.

First: CC(=O)N[C@H]1[C@H]([C@H](O)[C@H](O)CNc2c(NCc3ccccc3)c(=O)c2=O)O[C@@](OCCCSCCNC(=O)c2ccc(C(=O)NCCSCCCO[C@]3(C(=O)[O-])C[C@H](O)[C@@H](NC(C)=O)[C@H]([C@H](O)[C@H](O)CNc4c(NCc5ccccc5)c(=O)c4=O)O3)cc2)(C(=O)[O-])C[C@@H]1O.[Na+].[Na+] [Compound 134]
Second: CC(=O)N[C@H]1[C@H]([C@H](O)[C@H](O)CNC(=O)c2ccc(Oc3ccccc3)cc2)O[C@@](OCCCSCCNC(=O)c2ccc(C(=O)NCCSCCCO[C@]3(C(=O)[O-])C[C@H](O)[C@@H](NC(C)=O)[C@H]([C@H](O)[C@H](O)CNC(=O)c4ccc(Oc5ccccc5)cc4)O3)cc2)(C(=O)[O-])C[C@@H]1O.[Na+].[Na+] [Compound 63]
The rIP of the first is higher: 70 for the first, 20 for the second.

First: CC(=O)N[C@H]1[C@H]([C@H](O)[C@H](O)CNC(=O)c2ccc(-c3ccccc3)cc2)O[C@@](OCc2cn(CCNC(=O)c3ccc(C(=O)NCCn4cc(CO[C@]5(C(=O)[O-])C[C@H](O)[C@@H](NC(C)=O)[C@H]([C@H](O)[C@H](O)CNC(=O)c6ccc(-c7ccccc7)cc6)O5)nn4)cc3)nn2)(C(=O)[O-])C[C@@H]1O.[Na+].[Na+] [Compound 125]
Second: CC(=O)N[C@H]1[C@H]([C@H](O)[C@H](O)CNC(=O)c2ccc(-c3ccccc3)cc2)O[C@](C(=O)[O-])(n2cc(CCCCNC(=O)c3ccc(C(=O)NCCCCc4cn([C@]5(C(=O)[O-])C[C@H](O)[C@@H](NC(C)=O)[C@H]([C@H](O)[C@H](O)CNC(=O)c6ccc(-c7ccccc7)cc6)O5)nn4)cc3)nn2)C[C@@H]1O.[Na+].[Na+] [Compound 110]
The rIP of the first is lower: 8 for the first, 12 for the second.
